Assay results reported in article PMC7504817, “Phenylalanine Stereoisomers of CJ-15,208 and [D-Trp]CJ-15,208 Exhibit Distinctly Different Opioid Activity Profiles” (Molecules, 2020).
“Also recorded” adds a separate entry of the source. Like-named read-outs stand apart in the source and are kept apart here.

How the values were obtained:
[1] = system: C57BL/6J mice; assay: Acute antinociceptive tolerance (tail-withdrawal assay, dosing at 0 and 8 h); conditions: i.c.v.; for Fold-Shift, Naïve ED50 vs. Second ED50: 0 h vs 8 h; for ED50 (95% C.I.) Pretreated Mice: 8 h after pretreatment with ED50 dose of the same compound, * significantly different from naïve; for Naïve ED50 (95% C.I.): naïve C57BL/6J mice, tail-withdrawal assay; for acute antinociceptive tolerance: ED50 at 8 h vs 0 h
[2] = system: C57BL/6J mice; conditions: mice, ref [19], [20], cited from earlier work
[3] = system: C57BL/6J mice; conditions: ref [19], [20]; cited from earlier work
[4] = target: T1, rat KOR (Rattus norvegicus, UniProt P34975); assay: biochemical
[5] = system: mouse DOR; conditions: radioligand binding; ref [19]; cited from earlier work
[6] = target: T2, rat MOR (Rattus norvegicus, UniProt P33535); assay: Radioligand equilibrium competition binding, MOR; conditions: [3H]DAMGO; membranes from CHO cells expressing rat MOR; mean ± SEM, at least three experiments
T2 construct: expressed in transfected cells

[7] = target: T1, rat KOR; conditions: ratio Ki(MOR)/Ki(KOR)
[8] = parameters: method as in Khaliq et al., manuscript in preparation; conditions: ref Khaliq et al., manuscript in preparation; cited from earlier work
[9] = system: C57BL/6J mice; conditions: mouse, in vivo
[10] = system: C57BL/6J mice; conditions: mouse, in vivo; remark: listed apart in the source
[11] = system: C57BL/6J mice; conditions: mouse, in vivo; remark: listed apart in the source
[12] = Metabolic stability in mouse liver microsomes; format: in vitro ADME; conditions: pH 7.4, 5 µM peptide, 0.25 mg/mL protein, with NADPH, 37 °C, read-out: t1/2 in mouse liver microsomes
Procedure: The macrocyclic tetrapeptide (5 µM) in 1% acetonitrile was incubated with mouse liver microsomes (0.25 mg/mL protein, Xenotech, Lenexa, KS, USA) at 37 °C in the presence or absence of co-factor NADPH RapidStart System (1 mM, Xenotech) or NADPH solution (Sigma, St. Louis, MO, USA) in potassium phosphate buffer (50 mM, pH 7.4). Aliquots (100 µL) taken at 0, 5, 15, 30, 60 and 120 min were quenched with ice-cold acetonitrile (1 vol) containing internal standard ([D-NMeAla^2]CJ-15,208 [26], 5 µM) to precipitate the proteins. The lack of endogenous interference with the analysis of the stereoisomer or internal standard was confirmed by analyzing samples lacking the macrocyclic tetrapeptide.
Following centrifugation at 10,000× g rpm for 10 min, the supernatant (50 µL) was diluted with water (75 µL), stored overnight at −20 °C and analyzed by LC-MS/MS using methodology similar to that described for [D-Trp]CJ-15,208 [32]. Liquid chromatography was performed on a Hypersil BDS C8 column (50 mm × 2.1 mm, 3 µm) with a flow rate of 0.2 mL/min and an injection volume of 20 µL using an Acquity UPLC system (Waters, Milford, MA, USA). The peptides were separated using a gradient of aqueous acetonitrile containing 0.08% formic acid of 20% B (0–2 min), 20–50% B (2–3 min), 50–80% B (3–6 min), 80% B (6–7 min), 80–20% B (7–8 min) and 20% B (8–10 min).
ESI-MS/MS was performed on a Waters Quatro triple quadrupole instrument operating in the positive ion multiple reaction monitoring mode. Data acquisition was carried out with Mass Lynx 4.1 software with the following settings: capillary voltage, 2500 V; cone voltage, 30 V; source temperature, 100 °C; desolvation temperature, 250 °C; cone gas flow, 279 L/h; desolvation gas flow, 1157 L/h; LM 1 resolution, 14; HM 1 resolution, 14; ion energy 1, 1.0; MS/MS mode entrance, -1; MS/MS collision energy, 35 eV; MS/MS mode exit, 2; LM 2 resolution, 13.0; HM 2 resolution, 13.0; ion energy 2, 1.5; multiplier, 650; collision cell pressure, 1.63 × 10^−3 mbar; collision gas, argon. The transition m/z 578.2 ([M + H]^+) → 217.2 was monitored to determine the peak area counts of the stereoisomers, and m/z 566.2 ([M + H]^+) → 232.9 was monitored to determine the peak area counts of the internal standard (collision energy 22 eV) with the following settings: dwell time, 0.3 s; delay, 0.05 s.

[13] = target: T3, DOR (Mus musculus, UniProt P32300); assay: Antagonist activity against DOR-selective agonist SNC-80 (tail-withdrawal assay); format: in vivo; conditions: stereoisomer 100 nmol i.c.v. pretreatment; SNC-80 100 nmol i.c.v.
T3 construct: from tissue; host or cells: whole animal, C57BL/6J mice

[14] = system: C57BL/6J mice; assay: Opioid receptor involvement in antinociception (antagonist pretreatment, tail-withdrawal assay); format: in vivo, mouse; conditions: i.c.v. (1, 3, 4, 5 at 10 nmol, 2 at 100 nmol); pretreatment with β-FNA, nor-BNI or naltrindole
[15] = system: C57BL/6J mice; assay: 55 °C warm-water tail-withdrawal assay (antinociception); format: in vivo, mouse; conditions: for duration of significant antinociception: i.c.v. administration; for ED50 (and 95% C.I.) i.c.v. / ED50 (and 95% C.I.) p.o.: C57BL/6J mice, antinociception at peak response; for antinociceptive efficacy / ED50 (and 95% C.I.) p.o.: p.o.
Procedure: For intracerebroventricular (i.c.v.) administration the macrocyclic tetrapeptides were dissolved in dimethyl sulfoxide (DMSO), followed by addition of sterile saline (0.9%) so that the final vehicle was 50% DMSO and 50% saline, and the i.c.v. injections performed as described previously. This concentration of DMSO was not observed to have antinociceptive or behavioral effects in previous use. For per os (p.o.) administration the macrocyclic tetrapeptides were administered in 10% Solutol in 0.9% saline. All solutions for animal administration were prepared fresh daily.
The 55 °C warm-water tail-withdrawal assay was performed in mice as previously described, with the latency of the mouse to withdraw its tail from the water taken as the endpoint (a cut-off time of 15 sec was used in this assay). Antinociception was calculated according to the following formula: % antinociception = 100 × (test latency − control latency)/(15 − control latency). Tail-withdrawal data points are the means of 8–16 mice, unless otherwise indicated, with SEM shown by error bars.
All dose-response lines were analyzed by regression, and ED50 (effective dose producing 50% antinociception) values and 95% confidence intervals (C.I.) determined using individual data points from graded dose-response curves with Prism 8.0 software (GraphPad, La Jolla, CA, USA). Percent antinociception was used to determine within group effects and to allow comparison to baseline latency in tail-withdrawal experiments. The statistical significance of differences between ED50 values was determined by evaluation of the ED50 value shift via nonlinear regression modeling with Prism software. Significant differences in behavioral data were analyzed by ANOVA (one-way or two-way with repeated measures (RM), as appropriate). Significant results were further analyzed with Sidak’s, Tukey’s, or Dunnett’s multiple comparison post hoc tests, as appropriate. Data for conditioned place preference experiments were analyzed by two-way RM ANOVA, with analyses examining the main effect of conditioned place preference phase (e.g., pre- or post-conditioning) and the interaction of drug pretreatment. Significant effects were further analyzed using Sidak’s HSD post hoc testing. All data are presented as mean ± SEM, with significance set at p < 0.05.

[16] = system: C57BL/6J mice; assay: Conditioned place preference / aversion assay; conditions: 10 mg/kg, i.p., two-day place conditioning
[17] = system: C57BL/6J mice; assay: Respiration and ambulation, CLAMS/Oxymax system; conditions: 10 mg/kg, i.p.; 60 min
[18] = target: T4, KOR (Mus musculus, UniProt P33534); assay: Antagonist activity against KOR-selective agonist U50,488 (tail-withdrawal assay); format: in vivo; conditions: stereoisomer 30 nmol i.c.v. pretreatment; U50,488 10 mg/kg i.p.
T4 construct: from tissue; host or cells: whole animal, C57BL/6J mice
T4 sequence (P33534 whole entry): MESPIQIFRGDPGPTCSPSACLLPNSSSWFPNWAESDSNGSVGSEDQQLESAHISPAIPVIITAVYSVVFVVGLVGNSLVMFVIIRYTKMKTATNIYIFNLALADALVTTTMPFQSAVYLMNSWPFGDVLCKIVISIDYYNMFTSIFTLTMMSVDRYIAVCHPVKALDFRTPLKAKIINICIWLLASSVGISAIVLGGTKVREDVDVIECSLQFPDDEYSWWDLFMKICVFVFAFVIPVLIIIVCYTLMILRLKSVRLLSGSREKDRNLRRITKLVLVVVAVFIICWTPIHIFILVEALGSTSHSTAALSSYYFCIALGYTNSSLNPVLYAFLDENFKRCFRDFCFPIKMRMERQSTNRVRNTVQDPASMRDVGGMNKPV

T2 sequence (P33535 whole entry): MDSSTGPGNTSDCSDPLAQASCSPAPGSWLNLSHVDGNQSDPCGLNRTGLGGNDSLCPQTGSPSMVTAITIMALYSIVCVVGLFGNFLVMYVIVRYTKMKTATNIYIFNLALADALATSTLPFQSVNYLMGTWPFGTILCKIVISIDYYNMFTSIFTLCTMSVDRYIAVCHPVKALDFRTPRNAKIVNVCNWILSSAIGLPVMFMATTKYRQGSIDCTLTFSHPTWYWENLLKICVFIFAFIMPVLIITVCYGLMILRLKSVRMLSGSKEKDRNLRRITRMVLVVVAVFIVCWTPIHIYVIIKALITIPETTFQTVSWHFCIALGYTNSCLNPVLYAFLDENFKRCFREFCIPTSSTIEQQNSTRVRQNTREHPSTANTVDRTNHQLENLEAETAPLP
T1 sequence (P34975 whole entry): as the sequence (P33534 whole entry) above, with D11E, S17A, S51P, A308V counted along it
T3 sequence (P32300 whole entry): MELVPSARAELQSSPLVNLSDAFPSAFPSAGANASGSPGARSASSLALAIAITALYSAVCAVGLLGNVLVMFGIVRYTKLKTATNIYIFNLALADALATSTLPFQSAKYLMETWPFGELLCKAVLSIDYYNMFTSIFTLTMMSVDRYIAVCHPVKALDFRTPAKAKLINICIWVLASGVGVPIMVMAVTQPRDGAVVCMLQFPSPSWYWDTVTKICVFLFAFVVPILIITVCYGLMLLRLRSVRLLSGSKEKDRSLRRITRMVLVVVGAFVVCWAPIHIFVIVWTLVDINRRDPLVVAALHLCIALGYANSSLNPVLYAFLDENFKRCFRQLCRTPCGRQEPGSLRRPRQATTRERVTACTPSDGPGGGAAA

Row | Structure (SMILES) | Fold-Shift, Naïve ED50 vs. Second ED50 [1] [fold] | ED50 (95% C.I.) Pretreated Mice [1] | Naïve ED50 (95% C.I.) [1] | Ki [4] [µM] | Ki [6] [nM] | Selectivity Ki (MOR) Ki (KOR) [7] | acute antinociceptive tolerance [1] | effect on coordinated locomotor performance (rotarod) vs vehicle [10] | half-life at 5 µM [12] [min] | Receptors Involved (in antinociception) [14] | time of peak antinociception ([15]; after i.c.v. administration) [min] | duration of significant antinociception [15] | ED50 (and 95% C.I.) i.c.v. [15] | antinociceptive efficacy [15] | time of peak antinociception ([15]; p.o. administration) [min] | ED50 (and 95% C.I.) p.o. [15] | other results
1 | O=C1N[C@@H](Cc2ccccc2)C(=O)N2CCC[C@@H]2C(=O)N[C@@H](Cc2ccccc2)C(=O)N[C@H]1Cc1c[nH]c2ccccc12 [CJ-15,208, cyclo[Phe-D-Pro-Phe-Trp]] | 2.87 | 5.23 (4.23–6.48) nmol | 1.82 (1.22–2.74) nmol | 0.0274 ± 0.0046 | 451 ± 114 | 16.5 |  |  |  |  |  |  |  |  |  |  | ED50 (and 95% C.I.) i.c.v. ([2]; i.c.v.): 1.74 (0.62–4.82) nmol; ED50 (and 95% C.I.) p.o. ([2]; p.o.): 3.49 (1.98–5.73) mg/kg; Receptors Involved (in antinociception) [3]: KOR, MOR; affinity for DOR [5]: negligible affinity for DOR; half-life in mouse liver microsomes [8]: 49 min
2 | O=C1N[C@H](Cc2ccccc2)C(=O)N[C@H](Cc2c[nH]c3ccccc23)C(=O)N[C@@H](Cc2ccccc2)C(=O)N2CCC[C@H]12 (single isomer, unassigned) [Stereoisomer 5, cyclo[Phe-D-Pro-D-Phe-D-Trp]] | 1.09 | 0.49 (0.09–1.36) nmol | 0.45 (0.28–0.70) nmol | 0.353 ± 0.019 | 5800 ± 1450 | 16 | Neither stereoisomer 4 or 5 demonstrated any significant changes in the ED50 values | lacked any significant effect | 15 | all three opioid receptors contributed to the antinociception; also recorded: KOR, MOR, DOR | 30 | 90 min | 0.56 (0.38–0.91) nmol | full antinociception | 20 to 30 | 4.72 (3.70–6.39) mg/kg | conditioned place preference or aversion [9]: no significant preference or aversion; effect on respiration rate vs vehicle [11]: significant decreases in respiration rates; antagonism of SNC-80 antinociception (DOR antagonist activity) [13]: significantly antagonized SNC-80
3 | CN1CC[C@]23c4c5ccc(O)c4O[C@H]2[C@@H](O)C=C[C@H]3[C@H]1C5 [Morphine, morphine, reference compound] | 7.63 |  | 2.91 (2.48–3.41) nmol |  |  |  | demonstrated acute antinociceptive tolerance |  |  |  |  |  |  |  |  |  | conditioned place preference or aversion [16]: significant place-preference for the morphine-paired chamber; effect on ambulation vs vehicle [17]: robust, significant increases in ambulation; effect on respiration rate vs vehicle [17]: significant, time-dependent respiratory depression
4 | O=C1N[C@H](Cc2ccccc2)C(=O)N2CCC[C@@H]2C(=O)N[C@@H](Cc2ccccc2)C(=O)N[C@H]1Cc1c[nH]c2ccccc12 (single isomer, unassigned) [Stereoisomer 1, cyclo[D-Phe-D-Pro-Phe-Trp]] | 31.2 |  | 0.65 (0.31–1.31) nmol | 5.12 ± 0.69 | > 10000 |  | greater acute antinociceptive tolerance than CJ-15,208 | limited impairment of performance | 54 | all three opioid receptors contributed to the antinociception; also recorded: KOR, MOR, DOR | 20 | intermediate duration | 0.75 (0.36–1.44) nmol | full antinociception | 20 to 30 | 7.62 (5.12–12.2) mg/kg | antagonism of U50,488 antinociception (KOR antagonist activity) [18]: significant antagonism of U50,488
